Source: ChEMBL document CHEMBL3885881, “DrugMatrix”

Organism: Rattus norvegicus
Assay: DrugMatrix - Regimen: Daily Repeat
Assay type: toxicity, organism-based, Sprague-Dawley
Design: regimen Daily Repeat, gender Male, age 6-8 weeks
Conditions: in vivo, po, route oral GAVAGE, vehicle 100 % WATER; for ABSOLUTE BASOPHIL / ABSOLUTE EOSINOPHIL / ABSOLUTE LYMPHOCYTE / ABSOLUTE MONOCYTE / ABSOLUTE SEGMENTED NEUTROPHIL / BASOPHIL / EOSINOPHIL / ERYTHROCYTE COUNT / HEMATOCRIT / HEMOGLOBIN / LEUKOCYTE COUNT / LYMPHOCYTE / MEAN CORPUSCULAR HEMOGLOBIN / MEAN CORPUSCULAR HEMOGLOBIN CONCENTRATION / MEAN CORPUSCULAR VOLUME / MONOCYTE / NEUTROPHIL / NUCLEATED RED BLOOD CELLS / PLATELET COUNT: tissue Blood; for ALANINE AMINOTRANSFERASE / ALBUMIN / ALKALINE PHOSPHATASE / ASPARTATE AMINOTRANSFERASE / BLOOD UREA NITROGEN / CARBON DIOXIDE / CHLORIDE / CHOLESTEROL / CREATINE PHOSPHOKINASE / CREATININE / GLUCOSE / LACTATE DEHYDROGENASE / LIPASE / PHOSPHORUS / POTASSIUM / SODIUM / TOTAL BILIRUBIN / TOTAL PROTEIN / URIC ACID: tissue Plasma
[1] = 0 mg/kg, 72 h, dose level Control, time 3 day
[2] = 0 mg/kg, 120 h, dose level Control, time 5 day
[3] = 50 mg/kg, 72 h, dose level Low, time 3 day

## Cc1ncc([N+](=O)[O-])n1CCO [METRONIDAZOLE]
[1]
  ABSOLUTE BASOPHIL: 0 CELLS/uL
  ABSOLUTE EOSINOPHIL: 86.33 CELLS/uL
  ABSOLUTE LYMPHOCYTE: 12090.17 CELLS/uL
  ABSOLUTE MONOCYTE: 166.67 CELLS/uL
  ABSOLUTE SEGMENTED NEUTROPHIL: 1090.17 CELLS/uL
  BASOPHIL: 0%
  EOSINOPHIL: 0.67%
  ERYTHROCYTE COUNT: 5.57 x10E6/uL
  HEMATOCRIT: 35.33%
  HEMOGLOBIN: 13.83 G/DL
  LEUKOCYTE COUNT: 13.43 x10E3/uL
  LYMPHOCYTE: 89.83%
  MEAN CORPUSCULAR HEMOGLOBIN: 24.88 pg
  MEAN CORPUSCULAR HEMOGLOBIN CONCENTRATION: 39.15 G/DL
  MEAN CORPUSCULAR VOLUME: 63.52 fL
  MONOCYTE: 1.17%
  NEUTROPHIL: 8.33%
  NUCLEATED RED BLOOD CELLS: 0 /100WBC
  PLATELET COUNT: 1181.33 x10E3/uL
  ALANINE AMINOTRANSFERASE: 48.33 u/L
  ALBUMIN: 4.1 G/DL
  ALKALINE PHOSPHATASE: 395 u/L
  ASPARTATE AMINOTRANSFERASE: 81.83 u/L
  BLOOD UREA NITROGEN: 15.83 mg/dL
  CARBON DIOXIDE: 24.17 mmol/L
  CHLORIDE: 103.83 MEQ/L
  CHOLESTEROL: 63.67 mg/dL
  CREATINE PHOSPHOKINASE: 372.83 u/L
  CREATININE: 0.18 mg/dL
  GLUCOSE: 173.83 mg/dL
  LACTATE DEHYDROGENASE: 188.33 u/L
  LIPASE: 9.5 u/L
  PHOSPHORUS: 11.95 mg/dL
  POTASSIUM: 5.99 MEQ/L
  SODIUM: 144.43 MEQ/L
  TOTAL BILIRUBIN: 0.15 mg/dL
  TOTAL PROTEIN: 5.95 G/DL
  URIC ACID: 1.82 mg/dL
[2]
  ABSOLUTE BASOPHIL: 0 CELLS/uL
  ABSOLUTE EOSINOPHIL: 26.67 CELLS/uL
  ABSOLUTE LYMPHOCYTE: 7583.83 CELLS/uL
  ABSOLUTE MONOCYTE: 131.33 CELLS/uL
  ABSOLUTE SEGMENTED NEUTROPHIL: 674.83 CELLS/uL
  BASOPHIL: 0%
  EOSINOPHIL: 0.33%
  ERYTHROCYTE COUNT: 5.78 x10E6/uL
  HEMATOCRIT: 36.48%
  HEMOGLOBIN: 14.03 G/DL
  LEUKOCYTE COUNT: 8.42 x10E3/uL
  LYMPHOCYTE: 89.83%
  MEAN CORPUSCULAR HEMOGLOBIN: 24.3 pg
  MEAN CORPUSCULAR HEMOGLOBIN CONCENTRATION: 38.52 G/DL
  MEAN CORPUSCULAR VOLUME: 63.15 fL
  MONOCYTE: 1.67%
  NEUTROPHIL: 8.17%
  NUCLEATED RED BLOOD CELLS: 0 /100WBC
  PLATELET COUNT: 1186.67 x10E3/uL
  ALANINE AMINOTRANSFERASE: 50.17 u/L
  ALBUMIN: 4.07 G/DL
  ALKALINE PHOSPHATASE: 367.5 u/L
  ASPARTATE AMINOTRANSFERASE: 81.67 u/L
  BLOOD UREA NITROGEN: 16.17 mg/dL
  CARBON DIOXIDE: 32.33 mmol/L
  CHLORIDE: 101.5 MEQ/L
  CHOLESTEROL: 65.33 mg/dL
  CREATINE PHOSPHOKINASE: 255.33 u/L
  CREATININE: 0.17 mg/dL
  GLUCOSE: 139.33 mg/dL
  LACTATE DEHYDROGENASE: 95 u/L
  LIPASE: 10.5 u/L
  PHOSPHORUS: 10.38 mg/dL
  POTASSIUM: 6.11 MEQ/L
  SODIUM: 145.55 MEQ/L
  TOTAL BILIRUBIN: 0.17 mg/dL
  TOTAL PROTEIN: 5.98 G/DL
  URIC ACID: 0.93 mg/dL
[3]
  ABSOLUTE BASOPHIL: 0 CELLS/uL
  ABSOLUTE EOSINOPHIL: 59.33 CELLS/uL
  ABSOLUTE LYMPHOCYTE: 15201.67 CELLS/uL
  ABSOLUTE MONOCYTE: 170 CELLS/uL
  ABSOLUTE SEGMENTED NEUTROPHIL: 1569 CELLS/uL
  BASOPHIL: 0%
  EOSINOPHIL: 0.33%
  ERYTHROCYTE COUNT: 5.47 x10E6/uL
  HEMATOCRIT: 35.2%
  HEMOGLOBIN: 13.83 G/DL
  LEUKOCYTE COUNT: 17 x10E3/uL
  LYMPHOCYTE: 88.67%
  MEAN CORPUSCULAR HEMOGLOBIN: 25.3 pg
  MEAN CORPUSCULAR HEMOGLOBIN CONCENTRATION: 39.3 G/DL
  MEAN CORPUSCULAR VOLUME: 64.4 fL
  MONOCYTE: 1%
  NEUTROPHIL: 10%
  NUCLEATED RED BLOOD CELLS: 0 /100WBC
  PLATELET COUNT: 1236.33 x10E3/uL
  ALANINE AMINOTRANSFERASE: 54.33 u/L
  ALBUMIN: 3.9 G/DL
  ALKALINE PHOSPHATASE: 296.67 u/L
  ASPARTATE AMINOTRANSFERASE: 72 u/L
  BLOOD UREA NITROGEN: 13.67 mg/dL
  CARBON DIOXIDE: 28.33 mmol/L
  CHLORIDE: 100.67 MEQ/L
  CHOLESTEROL: 65 mg/dL
  CREATINE PHOSPHOKINASE: 186.33 u/L
  CREATININE: 0.12 mg/dL
  GLUCOSE: 155.67 mg/dL
  LACTATE DEHYDROGENASE: 82.33 u/L
  LIPASE: 9.33 u/L
  PHOSPHORUS: 12.27 mg/dL
  POTASSIUM: 6.41 MEQ/L
  SODIUM: 142.37 MEQ/L
  TOTAL BILIRUBIN: 0.17 mg/dL
  TOTAL PROTEIN: 5.6 G/DL
  URIC ACID: 1.5 mg/dL
